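Cells were grown in 96-well plates and exposed to each compound for 48 hours at five concentrations; endpoints were interpolated linearly between bracketing concentrations, or set to the highest concentration if not reached. TGI marks complete inhibition of growth.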
What was measured:
Experiment in all cases: inhibition of tumour cell growth, NCI panel, 48 h
COLO 205 colon = system: COLO 205 colon
T-47D breast = system: T-47D breast
MOLT-4 leukemia = system: MOLT-4 leukemia
HCT-116 colon = system: HCT-116 colon
OVCAR-8 ovarian = system: OVCAR-8 ovarian
LOX IMVI melanoma = system: LOX IMVI melanoma
SW-620 colon = system: SW-620 colon
MALME-3M melanoma = system: MALME-3M melanoma
UACC-257 melanoma = system: UACC-257 melanoma
HCC-2998 colon = system: HCC-2998 colon
UACC-62 melanoma = system: UACC-62 melanoma
KM12 colon = system: KM12 colon
NCI-H522 lung = system: NCI-H522 lung
ACHN renal = system: ACHN renal
HT29 colon = system: HT29 colon
786-0 renal = system: 786-0 renal
NCI-H23 lung = system: NCI-H23 lung
SK-MEL-28 melanoma = system: SK-MEL-28 melanoma
RPMI-8226 leukemia = system: RPMI-8226 leukemia
SNB-19 CNS = system: SNB-19 CNS
OVCAR-4 ovarian = system: OVCAR-4 ovarian
PC-3 prostate = system: PC-3 prostate
CCRF-CEM leukemia = system: CCRF-CEM leukemia
MCF7 breast = system: MCF7 breast
A549 NSCLC = system: A549 NSCLC
SK-OV-3 ovarian = system: SK-OV-3 ovarian
OVCAR-3 ovarian = system: OVCAR-3 ovarian
DU-145 prostate = system: DU-145 prostate
HL-60(TB) leukemia = system: HL-60(TB) leukemia
SNB-75 CNS = system: SNB-75 CNS
U251 CNS = system: U251 CNS
HOP-62 NSCLC = system: HOP-62 NSCLC
MDA-N = system: MDA-N
SN12C renal = system: SN12C renal
NCI/ADR-RES ovarian = system: NCI/ADR-RES ovarian
SF-268 CNS = system: SF-268 CNS
EKVX NSCLC = system: EKVX NSCLC
UO-31 renal = system: UO-31 renal
SF-295 CNS = system: SF-295 CNS
BT-549 breast = system: BT-549 breast
OVCAR-5 ovarian = system: OVCAR-5 ovarian
SK-MEL-5 melanoma = system: SK-MEL-5 melanoma
CAKI-1 renal = system: CAKI-1 renal
NCI-H226 lung = system: NCI-H226 lung
TK-10 renal = system: TK-10 renal
RXF 393 renal = system: RXF 393 renal
K-562 leukemia = system: K-562 leukemia
SF-539 CNS = system: SF-539 CNS
SR leukemia = system: SR leukemia
HCT-15 colon = system: HCT-15 colon
M14 melanoma = system: M14 melanoma
MDA-MB-435 = system: MDA-MB-435
SK-MEL-2 melanoma = system: SK-MEL-2 melanoma

Measured: TGI

COc1cc(N2C(=O)C(=O)C3(CCCCC3)C2=O)cc(OC)c1OC
> 100 µM: all assays above
